Structures are written as SMILES. Where two headings read alike, the source gives them in different places.

What all share (experiment): Kinase selectivity, P33-radiolabeled assay
Holding throughout (type): biochemical
Holding throughout (details): 10 μM ATP

The target in one assay is T1, CDK4/cyclin D1 (Homo sapiens, UniProt P11802).
T1 construct: purchased Reaction Biology Corp
In short, it runs like this:
(§1)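 ATP at 10 μM; test article at 10 μM, single point, two replicates. Output is activity as % of DMSO.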

For the next assay, the target named is T2, CAMK2a (Homo sapiens, UniProt Q9UQM7).
T2 construct: purchased Reaction Biology Corp
T2 sequence (Q9UQM7 whole entry): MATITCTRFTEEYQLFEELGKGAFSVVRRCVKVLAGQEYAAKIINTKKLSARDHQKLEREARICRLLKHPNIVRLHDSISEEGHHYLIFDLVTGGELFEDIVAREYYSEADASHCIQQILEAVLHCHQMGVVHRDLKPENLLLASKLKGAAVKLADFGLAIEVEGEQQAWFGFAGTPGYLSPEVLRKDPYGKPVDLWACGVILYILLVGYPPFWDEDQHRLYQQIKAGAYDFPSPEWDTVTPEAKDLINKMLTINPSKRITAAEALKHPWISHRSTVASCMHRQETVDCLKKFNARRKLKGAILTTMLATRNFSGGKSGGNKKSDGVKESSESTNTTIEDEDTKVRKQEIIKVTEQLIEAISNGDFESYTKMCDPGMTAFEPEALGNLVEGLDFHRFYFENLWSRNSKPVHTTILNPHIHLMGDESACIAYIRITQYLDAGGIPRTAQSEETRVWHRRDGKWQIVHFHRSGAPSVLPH
In short, it runs like this:
as §1

Another assay deals with T3, HCK (Homo sapiens, UniProt P08631).
T3 construct: purchased Reaction Biology Corp
T3 sequence (P08631 whole entry): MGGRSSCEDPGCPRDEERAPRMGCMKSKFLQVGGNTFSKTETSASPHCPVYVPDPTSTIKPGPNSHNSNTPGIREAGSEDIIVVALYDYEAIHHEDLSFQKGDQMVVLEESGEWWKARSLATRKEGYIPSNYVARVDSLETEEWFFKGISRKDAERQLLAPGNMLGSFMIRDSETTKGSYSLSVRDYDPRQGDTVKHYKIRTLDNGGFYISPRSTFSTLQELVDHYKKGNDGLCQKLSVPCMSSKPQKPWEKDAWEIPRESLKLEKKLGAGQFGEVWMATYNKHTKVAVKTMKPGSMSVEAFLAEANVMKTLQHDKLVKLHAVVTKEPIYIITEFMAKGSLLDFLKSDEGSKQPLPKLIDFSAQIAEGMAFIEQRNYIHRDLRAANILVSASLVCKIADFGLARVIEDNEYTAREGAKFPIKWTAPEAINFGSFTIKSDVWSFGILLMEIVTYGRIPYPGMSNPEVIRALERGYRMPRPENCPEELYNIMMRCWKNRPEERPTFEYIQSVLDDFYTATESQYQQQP
In short, it runs like this:
as §1

A further assay has as its target T4, ARK5/NUAK1 (Homo sapiens, UniProt O60285).
T4 construct: purchased Reaction Biology Corp
T4 sequence (O60285 1-661): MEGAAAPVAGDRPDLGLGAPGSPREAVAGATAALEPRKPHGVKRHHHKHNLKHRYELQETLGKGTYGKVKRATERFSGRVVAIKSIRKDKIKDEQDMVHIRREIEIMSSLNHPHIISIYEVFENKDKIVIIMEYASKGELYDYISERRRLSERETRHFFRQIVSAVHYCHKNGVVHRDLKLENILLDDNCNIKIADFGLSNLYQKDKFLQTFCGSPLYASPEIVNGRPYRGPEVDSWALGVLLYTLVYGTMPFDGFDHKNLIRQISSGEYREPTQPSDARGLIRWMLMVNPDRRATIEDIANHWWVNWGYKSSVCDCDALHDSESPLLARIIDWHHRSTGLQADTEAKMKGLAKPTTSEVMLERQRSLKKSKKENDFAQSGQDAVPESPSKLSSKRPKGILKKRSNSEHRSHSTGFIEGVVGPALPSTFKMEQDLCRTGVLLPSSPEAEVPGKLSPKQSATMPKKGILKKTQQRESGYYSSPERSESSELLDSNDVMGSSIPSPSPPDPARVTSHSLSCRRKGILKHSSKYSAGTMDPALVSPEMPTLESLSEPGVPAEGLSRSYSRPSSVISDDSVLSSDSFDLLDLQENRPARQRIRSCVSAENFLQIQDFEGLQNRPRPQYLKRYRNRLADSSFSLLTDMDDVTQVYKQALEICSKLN
In short, it runs like this:
as §1

In a further assay the target is T5, PBK/TOPK (Homo sapiens, UniProt Q96KB5).
T5 construct: purchased Reaction Biology Corp
T5 sequence (Q96KB5 1-322): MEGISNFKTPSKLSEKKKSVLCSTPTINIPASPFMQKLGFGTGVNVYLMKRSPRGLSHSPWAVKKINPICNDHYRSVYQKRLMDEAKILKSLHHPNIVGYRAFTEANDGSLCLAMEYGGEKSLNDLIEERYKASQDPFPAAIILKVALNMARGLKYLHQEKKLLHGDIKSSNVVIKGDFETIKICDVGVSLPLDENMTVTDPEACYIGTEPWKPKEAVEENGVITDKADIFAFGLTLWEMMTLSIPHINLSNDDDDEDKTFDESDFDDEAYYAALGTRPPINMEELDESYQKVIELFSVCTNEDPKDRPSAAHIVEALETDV
The procedure, abridged: as §1

A further assay has as its target T6, NEK1 (Homo sapiens, UniProt Q96PY6).
T6 construct: purchased Reaction Biology Corp
T6 sequence (Q96PY6 1-1258): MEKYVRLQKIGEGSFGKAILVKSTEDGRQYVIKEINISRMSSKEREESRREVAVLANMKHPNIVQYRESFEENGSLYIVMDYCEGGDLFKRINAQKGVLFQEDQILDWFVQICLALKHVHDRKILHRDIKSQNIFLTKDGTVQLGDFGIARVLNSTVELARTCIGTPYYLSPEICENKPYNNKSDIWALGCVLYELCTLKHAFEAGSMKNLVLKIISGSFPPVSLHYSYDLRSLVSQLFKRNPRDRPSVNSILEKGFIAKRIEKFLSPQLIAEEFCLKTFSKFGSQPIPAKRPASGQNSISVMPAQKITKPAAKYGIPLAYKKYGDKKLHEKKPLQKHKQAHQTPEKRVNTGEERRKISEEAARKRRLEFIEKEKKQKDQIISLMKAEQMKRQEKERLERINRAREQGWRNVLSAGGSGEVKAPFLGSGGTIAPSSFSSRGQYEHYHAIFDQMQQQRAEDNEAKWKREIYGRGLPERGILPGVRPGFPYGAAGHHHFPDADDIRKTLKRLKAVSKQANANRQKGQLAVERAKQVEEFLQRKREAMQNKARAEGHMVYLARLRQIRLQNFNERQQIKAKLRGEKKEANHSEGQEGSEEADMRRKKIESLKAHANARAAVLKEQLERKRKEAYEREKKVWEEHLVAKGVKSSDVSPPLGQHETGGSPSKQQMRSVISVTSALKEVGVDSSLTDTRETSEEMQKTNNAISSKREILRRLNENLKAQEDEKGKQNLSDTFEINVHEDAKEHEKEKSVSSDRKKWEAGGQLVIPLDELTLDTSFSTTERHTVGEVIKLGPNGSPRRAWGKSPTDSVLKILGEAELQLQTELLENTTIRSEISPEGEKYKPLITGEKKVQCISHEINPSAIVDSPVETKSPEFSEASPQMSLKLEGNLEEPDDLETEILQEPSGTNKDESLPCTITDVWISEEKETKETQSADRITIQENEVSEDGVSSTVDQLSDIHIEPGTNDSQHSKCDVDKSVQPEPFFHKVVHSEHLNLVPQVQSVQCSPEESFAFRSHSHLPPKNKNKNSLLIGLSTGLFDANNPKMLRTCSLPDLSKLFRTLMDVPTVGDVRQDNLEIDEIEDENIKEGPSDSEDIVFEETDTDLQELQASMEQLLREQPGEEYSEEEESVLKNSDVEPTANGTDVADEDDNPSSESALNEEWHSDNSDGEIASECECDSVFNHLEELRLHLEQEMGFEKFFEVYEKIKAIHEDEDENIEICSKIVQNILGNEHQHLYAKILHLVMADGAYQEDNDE
The procedure, abridged: as §1

The next assay has as its target T7, P38b/MAPK11 (Homo sapiens, UniProt Q15759).
T7 construct: purchased Reaction Biology Corp
In short, it runs like this:
as §1

A further assay deals with T8, PKN3/PRK3 (Homo sapiens, UniProt Q6P5Z2).
T8 construct: purchased Reaction Biology Corp
T8 sequence (Q6P5Z2 whole entry): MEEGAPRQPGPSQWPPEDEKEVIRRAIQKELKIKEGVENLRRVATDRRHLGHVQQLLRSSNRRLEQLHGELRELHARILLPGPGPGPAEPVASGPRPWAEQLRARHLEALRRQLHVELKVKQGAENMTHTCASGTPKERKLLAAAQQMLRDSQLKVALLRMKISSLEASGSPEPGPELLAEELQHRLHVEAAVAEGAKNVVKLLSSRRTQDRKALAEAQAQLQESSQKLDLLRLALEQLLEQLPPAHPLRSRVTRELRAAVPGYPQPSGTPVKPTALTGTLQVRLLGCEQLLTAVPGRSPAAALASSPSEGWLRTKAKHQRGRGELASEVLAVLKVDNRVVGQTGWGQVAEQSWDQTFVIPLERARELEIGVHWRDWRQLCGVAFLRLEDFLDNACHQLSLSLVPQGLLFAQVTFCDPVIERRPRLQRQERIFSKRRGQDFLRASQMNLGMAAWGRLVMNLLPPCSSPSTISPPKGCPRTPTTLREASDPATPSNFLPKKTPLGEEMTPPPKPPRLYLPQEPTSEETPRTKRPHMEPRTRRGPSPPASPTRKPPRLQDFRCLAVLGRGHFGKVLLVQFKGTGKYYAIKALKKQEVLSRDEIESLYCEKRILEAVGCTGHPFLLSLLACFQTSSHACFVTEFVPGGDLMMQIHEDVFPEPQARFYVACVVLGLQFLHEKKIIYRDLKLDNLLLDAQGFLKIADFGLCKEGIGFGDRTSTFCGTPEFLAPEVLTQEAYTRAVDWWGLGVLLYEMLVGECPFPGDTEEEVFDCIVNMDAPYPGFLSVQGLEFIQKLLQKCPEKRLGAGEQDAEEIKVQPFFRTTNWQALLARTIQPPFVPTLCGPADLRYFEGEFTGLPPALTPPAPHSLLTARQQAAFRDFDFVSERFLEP
In short, it runs like this: as §1

Setting [1] is: read-out: % Enzyme Activity (relative to DMSO controls) AVG.
Setting [2] is: read-out: % Enzyme Activity (relative to DMSO controls) Data 1.
Where [3] appears, read: read-out: % Enzyme Activity (relative to DMSO controls) Data 2.

T7 sequence (Q15759 whole entry): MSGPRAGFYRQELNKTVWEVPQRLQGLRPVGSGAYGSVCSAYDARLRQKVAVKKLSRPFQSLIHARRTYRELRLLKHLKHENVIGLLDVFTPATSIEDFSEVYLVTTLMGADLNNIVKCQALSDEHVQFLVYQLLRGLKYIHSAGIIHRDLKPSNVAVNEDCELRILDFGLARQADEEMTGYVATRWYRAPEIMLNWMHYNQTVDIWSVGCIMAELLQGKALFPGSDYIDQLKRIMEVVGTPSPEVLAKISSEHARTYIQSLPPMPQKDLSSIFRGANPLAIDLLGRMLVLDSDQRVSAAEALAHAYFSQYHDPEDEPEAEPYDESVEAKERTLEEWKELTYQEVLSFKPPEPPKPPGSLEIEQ
T1 sequence (P11802 whole entry): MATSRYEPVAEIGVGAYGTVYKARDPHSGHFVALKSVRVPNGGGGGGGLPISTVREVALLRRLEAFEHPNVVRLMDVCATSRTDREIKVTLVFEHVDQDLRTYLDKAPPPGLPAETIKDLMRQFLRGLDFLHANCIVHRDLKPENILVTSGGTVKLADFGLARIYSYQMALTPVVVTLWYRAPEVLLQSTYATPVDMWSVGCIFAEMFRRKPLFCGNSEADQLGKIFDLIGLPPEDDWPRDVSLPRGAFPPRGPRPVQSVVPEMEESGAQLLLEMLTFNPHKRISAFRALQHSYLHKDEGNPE
T1 sequence (P24385 whole entry partner): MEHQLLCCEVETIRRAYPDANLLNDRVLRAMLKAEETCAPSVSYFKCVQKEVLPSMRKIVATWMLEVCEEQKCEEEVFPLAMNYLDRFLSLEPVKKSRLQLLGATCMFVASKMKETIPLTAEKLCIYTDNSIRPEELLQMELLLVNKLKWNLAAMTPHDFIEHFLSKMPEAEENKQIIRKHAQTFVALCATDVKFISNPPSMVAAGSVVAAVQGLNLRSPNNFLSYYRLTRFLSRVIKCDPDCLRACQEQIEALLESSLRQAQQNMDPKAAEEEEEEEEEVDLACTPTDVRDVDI

With `CC(C)(C)C(=O)N1N=CC[C@H]1c1ccccc1` [GSK′963], the remaining activity at 10 µM on CDK4/cyclin D1 (setting [1]) stood at 96.7%; at CDK4/cyclin D1 (setting [2]) it was 94.5%; on CDK4/cyclin D1 (setting [3]), 98.9%; on CAMK2a (setting [1]) it was 102%; on CAMK2a (setting [2]), 101%; on CAMK2a (setting [3]), 102%. Further, the remaining activity at 10 µM at HCK (setting [1]) worked out at 96.5%; on HCK (setting [2]), 95.5%; on HCK (setting [3]) it was 97.6%; at ARK5/NUAK1 (setting [1]), 98%; at ARK5/NUAK1 (setting [2]), 95.8%; on ARK5/NUAK1 (setting [3]) it was 100%. For the same compound, the remaining activity at 10 µM was 104% at PBK/TOPK (setting [1]); 103% on PBK/TOPK (setting [2]); 105% on PBK/TOPK (setting [3]); 97.5% on NEK1 (setting [1]); 97.1% at NEK1 (setting [2]); 98% at NEK1 (setting [3]). In addition, the remaining activity at 10 µM at P38b/MAPK11 (setting [1]) was determined as 102%; on P38b/MAPK11 (setting [2]) it was 104%; at P38b/MAPK11 (setting [3]), 99.3%; on PKN3/PRK3 (setting [1]), 94%; at PKN3/PRK3 (setting [2]) it was 92.9%; at PKN3/PRK3 (setting [3]), 95.1%.

These data come from paper PMC4979471 (Cell Death Discovery, 2015).
